In patent publication US20080220030A1, “Nanoparticles Comprising Chitosan and Cyclodextrin” (UNIVERSIDADE DE SANTIAGO DE COMPOSTELA, priority 2005, published 2008):
Values after ≈ are worked out from the molar mass of the structure shown.

Experiments:
Type in all cases: physicochemical
[1] = Encapsulation efficiency and load of furosemide in nanoparticles (Example 8)
Text: (§1) The encapsulation efficiency (EE) refers to the percentage of drug which is trapped in the chitosan-cyclodextrin system with respect to the quantity of drug added in the process of preparation of the nanoparticles. The drug load is indirectly determined from a calculation of the non-encapsulated drug which remains dissolved in the nanoparticles' suspension medium. The difference between this value and the theoretical drug content is taken to be the quantity of drug loaded in the nanoparticles. The drug load percentage which appears in the table is the percentage with respect to the quantity of encapsulated drug in 100 mg of nanoparticle.
The drug that was not dissolved by the cyclodextrin-polymer mixture was discarded during the filtration process (through 0.45 .m) which was conducted prior to crosslinking the polymer (see example 3). […]. […]

[2] = Solubility of triclosan in the initial chitosan-cyclodextrin solutions (Example 7); details: aqueous with cosolvent or surfactant or cyclodextrin, thermodynamic from solid
Procedure: (§2) Nanoparticles of chitosan-cyclodextrin were obtained according to the method described in example 2, but adding a sufficient quantity of the drug triclosan to the initial solutions in order to oversaturate the solution. The drug that was not dissolved by the cyclodextrin-polymer mixture was discarded during the filtration process (through 0.45 .m) which was conducted prior to crosslinking the polymer by means of ionotropic crosslinking (see example 2). […] The triclosan was measured by means of a spectrophotometric method (.=280 nm).

[3] = Encapsulation efficiency and load of triclosan in nanoparticles (Example 7)
Procedure: as §2, §1

[4] = Dissolved triclosan in 80% water / 20% ethanol phase (Example 10)
Procedure: (§3) In a mixture of 80% water and 20% ethanol, solutions (3 ml) of chitosan (Protasan Cl110, 0.2%), HP.CD (0, 1.28 and 2.56 mM) and triclosan were prepared in a sufficient quantity to oversaturate the solution. These solutions were incubated for 24 h under magnetic stirring and, subsequently, filtered through a 0.45-.m filter and crosslinked by the addition of 1.2 ml of tripolyphosphate dissolved in a mixture of 80% water and 20% ethanol at a concentration of 1.25 mg/ml. The nanoparticles were isolated by centrifugation at 16000×g and resuspended in water. The size of the resulting particles and the polydispersion thereof were characterised by means of photon correlation spectroscopy (PCS). The quantity of encapsulated drug was determined by the degradation of an aliquot of the resuspended nanoparticles with the enzyme chitosanase (Chitosanase-RD, Pias Co, Japan), and the assessment was performed by means of spectrophotometry (.=280 nm).

[5] = Encapsulation efficiency and load of triclosan, chitosanase degradation (Example 10); details: 80% water/20% ethanol
Procedure: as §3

[6] = type HPCD •, 25 mM (first 25 mM line)
[7] = type HPCD •, 25 mM (second 25 mM line)

**Q.** For `NS(=O)(=O)c1cc(C(=O)O)c(NCc2ccco2)cc1Cl` [furosemide], which “furosemide EE” value ([1]; HPCD 0 mM) is on record?
**A.** 22.3 ± 1.4%

**Q.** And the load of furosemide ([1]; HPCD 0 mM)?
**A.** 0.23 ± 0.07%

**Q.** What about the “furosemide EE” value ([1]; type HPCD •, 3.14 mM) of the same compound?
**A.** 17.1 ± 3.0%

**Q.** What about the load of furosemide ([1]; type HPCD •, 3.14 mM) of the same compound?
**A.** 0.89 ± 0.04%

**Q.** And the “furosemide EE” value ([1]; type HPCD •, 6.29 mM)?
**A.** 12.1 ± 1.3%

**Q.** What about the load of furosemide ([1]; type HPCD •, 6.29 mM) of the same compound?
**A.** 1.43 ± 0.24%

**Q.** What about the “furosemide EE” value [1, 6] of the same compound?
**A.** 7.2 ± 3.1%

**Q.** What about the load of furosemide [1, 6] of the same compound?
**A.** 2.39 ± 0.72%

**Q.** And the “furosemide EE” value [1, 7]?
**A.** 8.8 ± 2.7%

**Q.** What about the load of furosemide [1, 7] of the same compound?
**A.** 1.92 ± 0.55%

**Q.** For `Oc1cc(Cl)ccc1Oc1ccc(Cl)cc1Cl` [triclosan], which solubility ([2]; HPCD 0 mM) is on record?
**A.** 68 ± 17 µg/mL (≈ 235 µM)

**Q.** What about the solubility ([2]; type HPCD •, 3.14 mM) of the same compound?
**A.** 211 ± 24 µg/mL (≈ 729 µM)

**Q.** What about the solubility ([2]; type HPCD •, 6.29 mM) of the same compound?
**A.** 588 ± 18 µg/mL (≈ 2030 µM)

**Q.** And the solubility [2, 6]?
**A.** 1120 ± 13 µg/mL (≈ 3870 µM)

**Q.** And the solubility [2, 7]?
**A.** 870 ± 59 µg/mL (≈ 3000 µM)

**Q.** What about the “triclosan EE” value ([3]; HPCD 0 mM) of the same compound?
**A.** 12.5 ± 8%

**Q.** And the triclosan load ([3]; HPCD 0 mM)?
**A.** 0.8 ± 0.3%

**Q.** And the “triclosan EE” value ([3]; type HPCD •, 3.14 mM)?
**A.** 5.2 ± 7%

**Q.** And the triclosan load ([3]; type HPCD •, 3.14 mM)?
**A.** 1.1 ± 0.2%

**Q.** What about the “triclosan EE” value ([3]; type HPCD •, 6.29 mM) of the same compound?
**A.** 4.8 ± 3%

**Q.** What about the triclosan load ([3]; type HPCD •, 6.29 mM) of the same compound?
**A.** 2.2 ± 0.1%

**Q.** What about the “triclosan EE” value [3, 6] of the same compound?
**A.** 5.5 ± 5%

**Q.** And the triclosan load [3, 6]?
**A.** 3.1 ± 0.1%

**Q.** And the “triclosan EE” value [3, 7]?
**A.** 4.6 ± 4%

**Q.** What about the triclosan load [3, 7] of the same compound?
**A.** 2.0 ± 0.1%

**Q.** What about the dissolved triclosan ([4]; HP•CD 0 mM) of the same compound?
**A.** 719 ± 79 mg/L

**Q.** And the dissolved triclosan ([4]; HP•CD 1.28 mM)?
**A.** 2536 ± 283 mg/L

**Q.** And the dissolved triclosan ([4]; HP•CD 2.56 mM)?
**A.** 3521 ± 213 mg/L

**Q.** And the load of triclosan ([5]; HP•CD 0 mM)?
**A.** 2.2 ± 0.9%

**Q.** And the “triclosan EE” value ([5]; HP•CD 0 mM)?
**A.** 22.3 ± 1.4%

**Q.** What about the load of triclosan ([5]; HP•CD 1.28 mM) of the same compound?
**A.** 7.4 ± 1.3%

**Q.** And the “triclosan EE” value ([5]; HP•CD 1.28 mM)?
**A.** 37.7 ± 7.3%

**Q.** And the load of triclosan ([5]; HP•CD 2.56 mM)?
**A.** 8.7 ± 0.2%

**Q.** And the “triclosan EE” value ([5]; HP•CD 2.56 mM)?
**A.** 33.5 ± 2.7%
